Laboratory results: US20210030646A1, “AN ANTIMICROBIAL COMPOSITION COMPRISING ESSENTIAL OIL AND ANTIMICROBIAL LIPID” (Conopco, Inc., d/b/a UNILEVER, priority 2017, published 2021)

Tested on: P. acnes (ATCC 6919)
Test: ΣFIC assay against P. acnes (checkerboard MIC, alamar blue)
Format: cell-based, Propionibacterium acne (P. acnes)
Settings: P. acnes ATCC 6919 in LB, anaerobic 37° C. 50 hours, lowest concentration giving complete growth inhibition; for MIC: Cutibacterium acnes, ATCC6919, single active alone, read-out: MIC (Minimum Inhibition Concentration)
Description: Synergistic interaction between the essential oil active and the AML compounds was determined using the ΣFIC assay against P. acnes. A brief description of the method is given below.
Methods: ΣFIC Assay Against P. acnes
P. acnes (ATCC 6919) is inoculated on Reinforced Clostridial Medium Agar plate (RCMA, solution A) and cultured anaerobically in an anaerobic jar at 37° C. for 72 to 96 hours. A single colony was cultured into Reinforced Clostridial Medium (RCM, solution B) and incubated anaerobically at 37° C. for 72 to 96 hours. Final cell density is adjusted to around 5×10^7 cells/ml by diluting using RCM. Then the inoculum is further diluted 1:1000 into Luria-Bertani medium (LB, solution C) to get around 5*10^4 cell/ml.
Essential oil active was serially diluted (2-fold) to prepare in a range of 10 to 10,000 ppm in the LB growth medium. The AML compound was serially diluted (2-fold) to prepare in a range of 15.6 to 1000 ppm for sapienic acid, and palmitoleic acid; and 2-125 ppm for other AMLs in the LB growth medium.
Binary combinations of essential oil and AML compound were prepared in 96-well plate by mixing 20 μl of essential oil solution with 20 μl of AML compound. The solution in each well were further mixed with 160 μl of P. acnes in LB. The final cell density in the testing plate is around 4*10^4 cell/ml, and the final concentration of actives in each well of the 96-well plate were shown below.
The fatty acid AML sapienic acid and palmitoleic acid compound concentrations (in ppm): 100, 50, 25, 12.5, 6.25, 3.13, 1.56, and 0. The sphingosine AML compound concentrations (in ppm): 12.5, 6.3, 3.1, 1.6, 0.8, 0.4, 0.2 and 0.
The plate was incubated anaerobically at 37° C. for 50 hours. Then 20 μl of alamar blue (0.01%) was added into each well with a further incubation aerobically for two to three days to observe the color change. Red color indicates microbial growth and the non-changing blue color indicates no growth. In addition, it was also confirmed that the testing compound alone will not cause color change of alamar blue with a control mixture without adding microbes.
The MIC is defined as the absolute lowest concentration of active that provides complete microbial growth inhibition as indicated by the blue color of alamar blue under the tested condition.
The differing behaviour of inhibitory antimicrobials in isolation and mixtures have been widely explored using the concept of the Fractional Concentration (FC) and Fractional Inhibitory Concentration (FIC). The parameter can be defined as follows: […]
These relationships can be expressed mathematically by summing the fractional MIC values for all the components present in the mixture to give the “fractional inhibition index”. There is no consistent approach in the academic or patent literature in defining precise limiting ΣFIC values that differentiate synergy from additivity or antagonism. In this study, we have adopted a liberal approach defining any binary mixture with ΣFIC<0.9 as showing evidence of synergistic behavior.
ΣFIC=FIC (component 1)+FIC (component 2)
ΣFIC=1 corresponds to additive microbial activity
ΣFIC>1 corresponds to antagonistic microbial activity
ΣFIC<0.9 corresponds to synergistic microbial activity
Based on the concentration range of the essential oil actives (0 to 1000 ppm) and the AML compound (0 to 100 ppm) at which the experiments were carried out, the ΣFIC of the combinations is given below in Table-1.

SMILES	MIC (Minimum Inhibition Concentration) (single active alone)	MIC
CCCCCCCCCCCCCCC[C@@H](O)[C@@H](N)CO [dihydrosphingosine]	0.2 ppm	
CCCCCC/C=C\CCCCCCCC(=O)O [palmitoleic acid]		1 µg/mL
CCCCCCCCCCCCCC[C@@H](O)[C@@H](O)[C@@H](N)CO [phytosphingosine]		0.2 µg/mL
CCCCCCCCCCCCC/C=C/[C@@H](O)[C@@H](N)CO [sphingosine]		0.4 µg/mL
Cc1ccc(C(C)C)c(O)c1 [thymol]		62.5 µg/mL
